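Five compound concentrations were applied to cells in 96-well plates for 48 hours; endpoints were derived by simple linear interpolation of the resulting dose-response curve. GI50 marks 50% less growth.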 Calls of active or inactive are those of the source. Rule as the data show it: active = GI50 up to about 1.1 µM and inactive = higher.
Assays:
Assay in all cases: NCI-60 cell line screen, 48 h
[1] = tested on: A549
[2] = tested on: IGROV-1
[3] = tested on: SK-OV-3
[4] = tested on: NCI-H522
[5] = tested on: T47D
[6] = tested on: SK-MEL-28
[7] = tested on: RPMI-8226
[8] = tested on: SF-268
[9] = tested on: SNB-19
[10] = tested on: SF-539
[11] = tested on: MDA-MB-435
[12] = tested on: HOP-62
[13] = tested on: Hs-578T
[14] = tested on: UO-31
[15] = tested on: DU-145
[16] = tested on: 786-0
[17] = tested on: RXF 393
[18] = tested on: LOX IMVI
[19] = tested on: OVCAR-3
[20] = tested on: NCI-H460

| SMILES | GI50 [1] | GI50 [2] | GI50 [3] | GI50 [4] | GI50 [5] | GI50 [6] | GI50 [7] | GI50 [8] | GI50 [9] | GI50 [10] | GI50 [11] | GI50 [12] | GI50 [13] | GI50 [14] | GI50 [15] | GI50 [16] | GI50 [17] | GI50 [18] | GI50 [19] | GI50 [20] |
| --- | --- | --- | --- | --- | --- | --- | --- | --- | --- | --- | --- | --- | --- | --- | --- | --- | --- | --- | --- | --- |
| CC1(C)CN=C(Nc2ccc(F)c(Cl)c2)S1 | > 100 µM (inactive) | > 100 µM (inactive) | > 100 µM (inactive) | > 100 µM (inactive) | > 100 µM (inactive) | > 100 µM (inactive) | > 100 µM (inactive) | > 100 µM (inactive) | > 100 µM (inactive) | > 100 µM (inactive) | > 100 µM (inactive) | > 100 µM (inactive) | > 100 µM (inactive) | > 100 µM (inactive) | > 100 µM (inactive) | > 100 µM (inactive) | > 100 µM (inactive) | > 100 µM (inactive) | > 100 µM (inactive) |  |
| Cc1ccc(C(=O)Nc2ccc(CP(=O)(O)O)cc2CP(=O)(O)O)cc1NC(=O)Nc1cc(C(=O)Nc2ccc(CP(=O)(O)O)cc2CP(=O)(O)O)ccc1C | > 100 µM (inactive) | > 100 µM (inactive) | > 100 µM (inactive) | 64.9 µM (inactive) | > 100 µM (inactive) | > 100 µM (inactive) | > 100 µM (inactive) | > 100 µM (inactive) | > 100 µM (inactive) | > 100 µM (inactive) | > 100 µM (inactive) | > 100 µM (inactive) | > 100 µM (inactive) | > 100 µM (inactive) | > 100 µM (inactive) | > 100 µM (inactive) | > 100 µM (inactive) | > 100 µM (inactive) | > 100 µM (inactive) | > 100 µM (inactive) |
| CCOC(=O)c1ccc(Nc2nc3ccc(C(F)(F)F)cc3nc2C(=O)OCC)cc1 | > 100 µM (inactive) | > 100 µM (inactive) | > 100 µM (inactive) | > 100 µM (inactive) | > 100 µM (inactive) | > 100 µM (inactive) | > 100 µM (inactive) | > 100 µM (inactive) | > 100 µM (inactive) | > 100 µM (inactive) | > 100 µM (inactive) | 49.2 µM (inactive) | 32.9 µM (inactive) | > 100 µM (inactive) | > 100 µM (inactive) | > 100 µM (inactive) | > 100 µM (inactive) | > 100 µM (inactive) | > 100 µM (inactive) | > 100 µM (inactive) |
| CCOC(=O)C1(C#N)OC(=O)c2cnccc21 (stereo not given) | > 100 µM (inactive) | > 100 µM (inactive) | > 100 µM (inactive) | > 100 µM (inactive) | > 100 µM (inactive) | > 100 µM (inactive) | > 100 µM (inactive) | > 100 µM (inactive) | > 100 µM (inactive) | > 100 µM (inactive) | > 100 µM (inactive) |  | > 100 µM (inactive) | > 100 µM (inactive) | > 100 µM (inactive) | > 100 µM (inactive) | > 100 µM (inactive) | > 100 µM (inactive) | > 100 µM (inactive) | > 100 µM (inactive) |
| O=[N+]([O-])c1ccc(O)c(/C=N/NC(=S)N2CCCCC2)c1 | 9.25 µM (inactive) | 1.67 µM (inactive) | 4.8 µM (inactive) | 3.52 µM (inactive) | 6.18 µM (inactive) | 3.71 µM (inactive) | 2.79 µM (inactive) | 2.45 µM (inactive) | 4.69 µM (inactive) | 6.82 µM (inactive) | 7.43 µM (inactive) | 5.74 µM (inactive) | 13.8 µM (inactive) | 0.91 µM (active) | 3.83 µM (inactive) | 1.84 µM (inactive) | 6.05 µM (inactive) | 1.57 µM (inactive) | 2.24 µM (inactive) | 4.81 µM (inactive) |
| CC(=O)OCC1OC(n2c3c(cc(C#N)c2=S)CCC3)C(OC(C)=O)C(OC(C)=O)C1OC(C)=O (stereo not given) | > 100 µM (inactive) | > 100 µM (inactive) |  | > 100 µM (inactive) | > 100 µM (inactive) | > 100 µM (inactive) | > 100 µM (inactive) | > 100 µM (inactive) | > 100 µM (inactive) | > 100 µM (inactive) | > 100 µM (inactive) | > 100 µM (inactive) | > 100 µM (inactive) | > 100 µM (inactive) | > 100 µM (inactive) | > 100 µM (inactive) | > 100 µM (inactive) | > 100 µM (inactive) |  | > 100 µM (inactive) |
| Cc1sccc1C(=S)Nc1ccc(Cl)c(/C=N/OC(C)(C)C)c1 | 20.2 µM (inactive) | 13.5 µM (inactive) | 21.9 µM (inactive) | 12 µM (inactive) | 10.6 µM (inactive) | 26.6 µM (inactive) | 7.31 µM (inactive) | 18.3 µM (inactive) |  | 31.5 µM (inactive) | 21.7 µM (inactive) | 16 µM (inactive) | 22.3 µM (inactive) | 12.5 µM (inactive) | 14.6 µM (inactive) | 21.1 µM (inactive) | 17.2 µM (inactive) | 26.6 µM (inactive) | 13.9 µM (inactive) |  |
| C=CCC1=CC2(OC)C(=O)C(OC)(OC)C1C1C(OC)(OC)C(=O)C(OC)=CC12CC=C (stereo not given) | > 100 µM (inactive) | > 100 µM (inactive) | 67.8 µM (inactive) | > 100 µM (inactive) | > 100 µM (inactive) | > 100 µM (inactive) | > 100 µM (inactive) | > 100 µM (inactive) | > 100 µM (inactive) | > 100 µM (inactive) | > 100 µM (inactive) | > 100 µM (inactive) | > 100 µM (inactive) | > 100 µM (inactive) | > 100 µM (inactive) | > 100 µM (inactive) | > 100 µM (inactive) | > 100 µM (inactive) | > 100 µM (inactive) | > 100 µM (inactive) |
| CC1=NN(c2ccc(S(=O)(=O)O)cc2)C(=O)/C1=C/c1ccc(Cl)cc1.c1ccncc1 | > 100 µM (inactive) | > 100 µM (inactive) | > 100 µM (inactive) | > 100 µM (inactive) | > 100 µM (inactive) | > 100 µM (inactive) | > 100 µM (inactive) | > 100 µM (inactive) | > 100 µM (inactive) | > 100 µM (inactive) | > 100 µM (inactive) | > 100 µM (inactive) | > 100 µM (inactive) | > 100 µM (inactive) | > 100 µM (inactive) | > 100 µM (inactive) | > 100 µM (inactive) | > 100 µM (inactive) | > 100 µM (inactive) | > 100 µM (inactive) |
| CC(=O)OCC(OC(C)=O)C(OC(C)=O)C(OC(C)=O)C(/C=N\Nc1nc2ccccc2c(=O)[nH]1)OC(C)=O (stereo not given) | > 100 µM (inactive) |  | > 100 µM (inactive) | > 100 µM (inactive) | > 100 µM (inactive) | > 100 µM (inactive) | > 100 µM (inactive) | > 100 µM (inactive) | > 100 µM (inactive) | > 100 µM (inactive) | > 100 µM (inactive) | > 100 µM (inactive) | > 100 µM (inactive) | > 100 µM (inactive) | > 100 µM (inactive) | > 100 µM (inactive) | > 100 µM (inactive) | > 100 µM (inactive) | > 100 µM (inactive) | > 100 µM (inactive) |
| COc1c(Cl)ccc(Cl)c1-c1nnc(-c2c(Cl)c(Cl)c(Cl)c(Cl)c2-c2nc3cc(C(=O)c4ccccc4)ccc3[nH]2)o1 | 45.2 µM (inactive) | 45.5 µM (inactive) | > 100 µM (inactive) | 22.9 µM (inactive) | > 100 µM (inactive) | 47.2 µM (inactive) | 23.8 µM (inactive) | 57.1 µM (inactive) | 62.2 µM (inactive) | 22.1 µM (inactive) | 21.4 µM (inactive) | 43.5 µM (inactive) | 42.2 µM (inactive) | 75.7 µM (inactive) | > 100 µM (inactive) | 73.6 µM (inactive) | 20.8 µM (inactive) | 54.1 µM (inactive) | 53.2 µM (inactive) |  |
| NC1CSc2ccccc2NC1=O (stereo not given) | > 100 µM (inactive) | > 100 µM (inactive) | > 100 µM (inactive) | > 100 µM (inactive) | > 100 µM (inactive) | > 100 µM (inactive) | > 100 µM (inactive) | > 100 µM (inactive) | > 100 µM (inactive) | > 100 µM (inactive) | > 100 µM (inactive) | > 100 µM (inactive) | > 100 µM (inactive) | > 100 µM (inactive) | > 100 µM (inactive) | > 100 µM (inactive) | > 100 µM (inactive) | > 100 µM (inactive) | > 100 µM (inactive) | > 100 µM (inactive) |
| COC12c3ccccc3-c3ccccc3C1[C@H]1C(=O)OC(=O)[C@H]12 (stereo not given in full) |  | > 10 µM (inactive) | > 10 µM (inactive) | > 10 µM (inactive) | > 10 µM (inactive) | > 10 µM (inactive) | > 10 µM (inactive) | > 10 µM (inactive) | > 10 µM (inactive) | > 10 µM (inactive) | > 10 µM (inactive) | > 10 µM (inactive) | > 10 µM (inactive) | > 10 µM (inactive) | > 10 µM (inactive) | > 10 µM (inactive) | > 10 µM (inactive) | > 10 µM (inactive) | > 10 µM (inactive) | > 10 µM (inactive) |
| O=[N+]([O-])c1nccn1CCCNc1c2ccccc2[n+]([O-])c2ccccc12 | > 100 µM (inactive) | 51.9 µM (inactive) | > 100 µM (inactive) | > 100 µM (inactive) | > 100 µM (inactive) | > 100 µM (inactive) | > 100 µM (inactive) | > 100 µM (inactive) |  | > 100 µM (inactive) | > 100 µM (inactive) | > 100 µM (inactive) | > 100 µM (inactive) | > 100 µM (inactive) | > 100 µM (inactive) | > 100 µM (inactive) | > 100 µM (inactive) | > 100 µM (inactive) | > 100 µM (inactive) | 51.3 µM (inactive) |

Source: ChEMBL document CHEMBL1201862, “PubChem BioAssay data set” (2004)
